This note sets out measurements from patent US12370152B2, “Pharmaceutical composition for preventing or treating metabolic diseases” (INDUSTRY ACADEMIC COOPERATION FOUNDATION CHOSUN UNIVERSITY, priority 2021, dated 2025).

The test system of series [1] is SIRT1, AMPK and ACC. The series can be described thus: Western blot of SIRT1, AMPK and ACC in HepG2 cells. Type of series: cell-based. As for the experimental part: (§1) HepG2 hepatocytes were cultured in low glucose Dulbecco's modified Eagle medium (DMEM) (Gibco, Life Technologies, Grand Island, NY, USA) to which 10% FBS (Gibco, Life Technologies, USA), L-glutamine, and 1% penicillin/streptomycin solution were added. The cells were manipulated in a humidified incubator at 37° C. containing 5% CO2 under a sterile condition. The cells were sub-cultured as soon as they reached confluence. The cells were continuously monitored under a bright-field microscope (Nikon Eclipse TS100, Tokyo, Japan), and the medium was replaced every 3 days. For cell viability assays, the cells were seeded and treated with 0 μM-2000 μM camphorquinone (CQ) for 24 hours, then incubated in MTT solution (0.5 mg/ml) for 2 hours, and then formazan crystals were dissolved using dimethyl sulfoxide (DMSO). Cell viability was evaluated using a spectrophotometer (Multiskan FC, Thermo Fisher Scientific).
(§2) Total proteins were extracted with a RIPA lysis buffer system including phenylmethylsulfonyl fluoride (PMSF), sodium orthovanadate (Na3VO4) and protease inhibitor cocktail (Santa Cruz Biotechnology) at 4° C. for 30 minutes, and the extracted sample was centrifuged at 16,000×g for 20 minutes. The concentration of total proteins was quantified using a Pierce BCA Protein Assay Kit (Thermo Fisher Scientific). The proteins (30 to 50 μg) were loaded and separated through sodium dodecyl sulfate-polyacrylamide gel electrophoresis (SDS-PAGE), and then blotted with a PVDF membrane (GE Healthcare, Germany). In order to prevent nonspecific binding of the primary antibodies, the membrane was blocked with TBST including 1% non-fat dry milk for 1 hour and 30 minutes at room temperature (RT). Then, the membrane was incubated overnight at 4° C. together with each primary antibody. The secondary antibodies were conjugated with horseradish peroxidase and visualized with an enhanced chemiluminescence detection kit (GE Healthcare). Analysis of density measurement was performed using Image J software.

Series [2] deals with HFD+STZ-induced type 2 diabetic mice. The series can be described thus: Glucose tolerance test in HFD+STZ-induced type 2 diabetic mice. It counts as in vivo, C57BL/6 mice. As to conditions: 1.5 g/kg d-glucose i.p., within 2 hours, vs HFD mouse group. As for the experimental part: (§3) 6-week-old male C57BL/6 mice (weight 22±2 g) were purchased from Samtako Bio Korea Co., Ltd. (Osan, Gyeonggi-do, Korea). The mice were maintained at 23 to 25° C. under a 12 h light-dark cycle with free access to food and water in a pathogen-free animal facility center. All animal experiments were approved in accordance with the Chosun University Institutional Animal Care and Use Committee (CIACUC2020-S0009). All animals were fed normal chow pellets (ND, SAM #31, Samtako, Inc.), and went through a period of adjustment for 1 week. During the following week, the animals were randomly classified according to the body weight, and one-third of the animals were classified as normal controls to be fed normal chow pellets throughout the study. On the other hand, the remaining animals were fed a high-fat diet (HFD; 60% Kcal energy as fat) (study diet; #D12492; New Brunswick, NJ 08901 USA) for 2 weeks in order to induce insulin resistance, and the diet was continued until the study ended. Then, STZ (30 mg/kg, i.p.) was administered to the animals for 5 consecutive days from the 4th week to induce T2DM therein. On the other hand, the normal control animals were administered the same volume of citrate buffer instead of the STZ. Blood glucose levels of the animals were measured at the end of week 5, and animals showing a fasting blood glucose level (FBG)≥200 mg/dl were selected for the study. […]

Series [3] relates to IL1α, IL1β, IL6, p53, TNFα and RAGE. The series can be described thus: qRT-PCR of inflammatory markers in liver of diabetic mouse model. Type of series: in vivo, C57BL/6 mice. As to conditions: CQ-L, 10 mg/kg/day i.p., vs HFD mouse group. As for the experimental part: as §3, with “On the other hand, the remaining animals were fed a high-fat diet (HFD; 60% Kcal energy as fat) (study diet; #D12492; New Brunswick, NJ 08901 USA) for 2 weeks in order to induce insulin resistance, and the diet was continued until the study ended. Then, STZ (30 mg/kg, i.p.) was administered to the animals for 5 consecutive days from the 4th week to induce T2DM therein. On the other hand, the normal control animals were administered the same volume of citrate buffer instead of the STZ.” left out
(§4) Total RNA was separated from liver tissue of the mouse model using RNAisoPlus (Takara). Then, total RNA (2.5 μg) was reverse transcribed using a Primescript™ II 1st strand cDNA synthesis kit (Takara), and quantified using a Power SYBR Green PCR Master mix (Applied BioSystems). […]
Background: Real-time PCR tracks product formation cycle by cycle.

Series [4] concerns LKB1, PGC1a and CRTC2. The series can be described thus: Expression of LKB1, PGC1a and CRTC2 in liver of diabetic mouse model. It counts as in vivo, C57BL/6 mice. To be noted: CQ treatment vs HFD+STZ-treated HFD mouse group. As for the experimental part:
(§5) 6-week-old male C57BL/6 mice (weight 22±2 g) were purchased from Samtako Bio Korea Co., Ltd. (Osan, Gyeonggi-do, Korea). The mice were maintained at 23 to 25° C. under a 12 h light-dark cycle with free access to food and water in a pathogen-free animal facility center. All animal experiments were approved in accordance with the Chosun University Institutional Animal Care and Use Committee (CIACUC2020-S0009). All animals were fed normal chow pellets (ND, SAM #31, Samtako, Inc.), and went through a period of adjustment for 1 week. During the following week, the animals were randomly classified according to the body weight, and one-third of the animals were classified as normal controls to be fed normal chow pellets throughout the study. On the other hand, the remaining animals were fed a high-fat diet (HFD; 60% Kcal energy as fat) (study diet; #D12492; New Brunswick, NJ 08901 USA) for 2 weeks in order to induce insulin resistance, and the diet was continued until the study ended. Then, STZ (30 mg/kg, i.p.) was administered to the animals for 5 consecutive days from the 4th week to induce T2DM therein. On the other hand, the normal control animals were administered the same volume of citrate buffer instead of the STZ. Blood glucose levels of the animals were measured at the end of week 5, and animals showing a fasting blood glucose level (FBG)≥200 mg/dl were selected for the study. Finally, the animals were divided into the following 4 groups; Group 1: saline-treated normal control mice (Control), Group 2: saline-treated diabetic control mice (HFD), Group 3: camphorquinone (10 mg/kg/day, i.p.)-treated diabetic mice (CQ-L), and Group 4: camphorquinone (30 mg/kg/day, i.p.)-treated diabetic mice (CQ-H). […]
as §4

Series [5] concerns AMPK, SIRT1 and ACC. The series can be described thus: Western blot of AMPK, SIRT1 and ACC in FFA-treated HepG2 fatty hepatocyte model. Type of series: cell-based. To be noted: FFA-treated hepatocytes, 500 μM CQ 24 hours. As for the experimental part: (§6) Free fatty acids (FFA) were prepared from a combination of palmitic acid (PA) and oleic acid (OA). In short, stocks of 100 mM palmitic acid and 100 mM oleic acid dissolved in sodium hydroxide were prepared. These stock solutions were conjugated with 10% BSA (1:9) solution. All stock solutions were stored at −20° C. The cells were seeded and attached to a 6-well plate, then the cells were treated with a mixture of 0.2 mM PA and 0.4 mM OA (1:2) for 24 hours or the same volume of 10% BSA solution for 24 hours. FFA was removed the next day and 500 μM of camphorquinone was added to the mixture and left for 24 hours. Thereafter, the plate was used for protein and oil red staining.
as §2
(A western blot detects proteins with antibodies after separation by electrophoresis.)

In series [6] the test system is HepG2 cells. The series can be described thus: MTT assay, cytotoxicity in HepG2 cells. Type of series: cell-based. As to conditions: 24 hours. As for the experimental part:
as §1
A general note: Tetrazolium assays rely on reduction of a dye to a coloured formazan, in cell work by metabolically active cells.

For series [7], the system named is AMPK and SIRT1. The series can be described thus: Immunoblotting of AMPK and SIRT1 in liver tissue of diabetic mouse model. To be noted: vs HFD mouse group. It counts as in vivo, C57BL/6 mice. As for the experimental part:
as §2, §3

Series [8] concerns HFD+STZ-induced type 2 diabetic mice. The series can be described thus: Body weight and liver weight in HFD+STZ-induced type 2 diabetic mice. To be noted: CQ-L, 10 mg/kg/day i.p., 3 weeks. Type of series: in vivo, C57BL/6 mice. As for the experimental part: as §3
Series [9] relates to FFA-treated HepG2 cells. The series can be described thus: Oil Red O staining, lipid accumulation in FFA-treated HepG2 cells. Type of series: cell-based. As to conditions: FFA-treated HepG2 cells (0.2 mM PA + 0.4 mM OA 24 hours), then 500 μM CQ 24 hours. As for the experimental part:
as §6
Oil Red O stock solution dissolved in isopropyl alcohol was prepared by magnetic stirring at room temperature for 2 hours, and the prepared solution was stored at room temperature. Then, Oil Red O working solution was prepared by mixing 1.5 parts of stock solution and 1 part of water (3:2), and incubated at 4° C. for 10 minutes. The solution was filtered through a 0.02 μm filter and used within 6 hours. […] The stained lipid droplets were dissolved in 2-propanol, and absorbance at 520 nm was measured to quantify lipid accumulation.

The test system of series [10] is SREBP1, FASN, ChREB, CPT1a and CPT1b. The series can be described thus: qRT-PCR of lipid production and β-oxidation genes in liver of diabetic mouse model. It counts as in vivo, C57BL/6 mice. To be noted: CQ-L, 10 mg/kg/day i.p., vs HFD mouse group. As for the experimental part:
as §5, §4

In series [11] the test system is HFD+STZ-induced type 2 diabetic mice. The series can be described thus: Fasting blood glucose in HFD+STZ-induced type 2 diabetic mice. To be noted: 3 weeks, vs HFD+STZ-treated mice. Type of series: in vivo, C57BL/6 mice. As for the experimental part: as §3
Series [12] has as its system lipid synthesis marker (ChREB) and lipid β-oxidation markers (CES1, CES2 and CPT1A). The series can be described thus: qRT-PCR of lipid metabolism genes in FFA-treated cell model. Type of series: cell-based.
The test system of series [13] is LKB1 and ERK. The series can be described thus: LKB1 and ERK signals in liver tissue of diabetic mouse model. It counts as in vivo, C57BL/6 mice. As to conditions: vs HFD mouse group. As for the experimental part:
as §2, §3

[14] abbreviates: by treatment concentration of CQ.

Turning to `c1cc(-c2cnn3cc(-c4ccc(OCCN5CCCCC5)cc4)cnc23)ccn1` [Compound C, reference compound], in [1] (CC treatment together with CQ), the “CQ-induced ACC protein expression” value is given as “significantly decreased”, the “CQ-induced AMPK protein expression” value is reported as “significantly decreased” and the “CQ-induced SIRT1 protein expression” value is given as “significantly decreased”.

Turning to `CC12CCC(C(=O)C1=O)C2(C)C` (stereo not drawn) [camphorquinone], the glucose tolerance result in series [2] (CQ-H, 30 mg/kg/day i.p.) was “improved”. Also, in [2] (CQ-L, 10 mg/kg/day i.p.), the glucose tolerance entry is “improved”. In [3], the “expressions of most inflammatory markers in the liver (IL1α, IL1β, IL6, p53, TNFα and RAGE)” value is “significantly decreased”. In series [4], the “expression of CRTC2 in liver” value was “increased”, the “expression of LKB1 in liver” value is given as “increased” and the “expression of PGC1a in liver” value is reported as “increased”. In series [5], the “activation of ACC” value was “restored”, the “activation of AMPK” value is reported as “restored” and the “activation of SIRT1” value is reported as “restored”. Further, the “cell viability (MTT assay)” value in series [6] (at a high concentration (above 500 μM; 0-2000 μM tested)) was “decreased”. In series [6] (up to 500 μM), the “cytotoxicity (MTT assay)” value is “No cytotoxicity”. Further, in series [7] (CQ-H, 30 mg/kg/day i.p.), the “AMPK in liver tissue” value is “activated” and the “SIRT1 in liver tissue” value is listed as “activated”. Also, in series [7] (CQ-L, 10 mg/kg/day i.p.), the “AMPK in liver tissue” value is “activated” and the “SIRT1 in liver tissue” value is “activated”. Also, in series [8], the body weight result is “gradually decreased” and the liver weight result is listed as “gradually decreased”. For the same compound, the “lipid accumulation (Oil red O staining)” value in [9] is “reduced”. The “SIRT1, AMPK and ACC expression” value in [1] (CQ at 500 μM, increase was decreased at the high concentration) was “significant increase”. In addition, in series [1] (setting [14]), the ACC expression result was “significantly increased in a dose-dependent manner”, the AMPK expression entry is given as “significantly increased in a dose-dependent manner” and the SIRT1 expression entry is “significantly increased in a dose-dependent manner”. Besides, in series [10], the “expression of FASN (lipid production) in liver” value is “significantly decreased”, the “expression of SREBP1 (lipid production) in liver” value was “significantly decreased” and the “expression of the lipid β-oxidation gene CPTa in liver” value was “significantly increased”. For the same compound, in series [11] (CQ-H, 30 mg/kg/day i.p.), the “fasting blood glucose levels” value is “significantly decreased”. Besides, the “fasting blood glucose levels” value in [11] (CQ-L, 10 mg/kg/day i.p.) was “significantly decreased”. Also, in series [12], the “expression of lipid β-oxidation marker” value is “increased” and the “expressions of lipid synthesis markers” value was “decreased”. In series [13] (CQ-H, 30 mg/kg/day i.p.), the “ERK marker in liver tissue” value was “highly expressed” and the “LKB1 marker in liver tissue” value is listed as “highly expressed”. Also, in series [13] (CQ-L, 10 mg/kg/day i.p.), the “ERK marker in liver tissue” value is recorded as “highly expressed” and the “LKB1 marker in liver tissue” value is “highly expressed”.
